Patent US10233195B2, “Anti-fibrotic pyridinones” (InterMune, Inc., priority 2014, dated 2019)

What was measured:
[1] = system: Fibroblasts (primary human lung and dermal, HFL-1, 3T3 etc); experiment: Cell proliferation assay (BrdU incorporation); type: cell-based; details: HFL1, stimulant (LPA, TGFb, serum etc), 50% inhibition of the increase of BrdU incorporation
Experimental: Assay of Inhibitory Effect on Cell Proliferation (BrdU Incorporation)
Fibroblasts (primary human lung and dermal, HFL-1, 3T3 etc) were plated on a 96-well plate and serum starved for 24-48 hours. The media were then exchanged for media containing stimulants (LPA, TGFb, serum etc) and cultured further for 16-24 hours before BrdU addition. After culturing for another 8 hours, cells were washed with PBS and the amount of BrdU incorporated into the cells was assayed by absorbance at 450 nm using the Cell proliferation ELISA system (RPN250, Amersham LIFE SCIENCE). The difference between the amount of BrdU incorporated in the stimulant-added well and the amount of BrdU incorporated in the well containing no stimulant represented the amount of BrdU incorporation accelerated by stimulant. The increase of BrdU incorporation without the addition of test compounds was set as 100% and the concentration of compound with 50% inhibition in the increase of BrdU incorporation (IC50 value) was determined. The test compounds were added 0-30 min before stimulant addition.
Compounds of some embodiments were prepared according to synthetic methods described herein and assay data obtained for IC50 for BrdU inhibition. The assay data obtained is presented in Table 3, in which A=less than 50 μM, B=greater than or equal to 50 μM and less than or equal to 200 μM; and C=greater than 200 μM.

[2] = system: TGF-b induced Endothelin-1 production; experiment: ET-1 assay: inhibitory effect on TGF-b induced endothelin-1 production; type: cell-based; details: Homo sapiens, Fibroblast; fibroblasts, stimulant (TGFb, serum, LPA etc), ET-1 in media by ELISA, 4-parameter fit
Outline: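 Fibroblasts (primary human lung/dermal, HFL-1, 3T3) serum-starved 0-48 h, preincubated ~30 min with compound, then stimulated (TGFb, serum or LPA) for 16-48 h. Secreted ET-1 measured by ELISA; EC50 from 4-parameter logistic fit, with CC50 from ATPlite in the same wells.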

Compound | IC50 [1] | EC50 [2]
Cc1cc(=O)n(-c2ccc(OC(F)(F)F)cc2)cc1-c1ccc2c(c1)OCC(=O)N2C [Compound 425] | < 50 µM | < 50 µM
Cc1cc(=O)n(-c2ccc(OC(F)(F)F)cc2)cc1-c1ccc2ocnc2c1 [Compound 254] | < 50 µM | < 50 µM
O=c1ccc2c(n1-c1ccc(OC(F)(F)F)cc1)CCC2 [Compound 28] | 50 to 200 µM | 50 to 200 µM
Cc1cc(=O)[nH]cc1-c1ccc2c(c1)OCC(=O)N2C [Compound 563] | < 50 µM | < 50 µM
CCn1c(=O)oc2ccc(-c3c[nH]c(=O)cc3C)cc21 [Compound 562] | < 50 µM | < 50 µM
O=c1c2nccnc2c(-c2cn[nH]c2)cn1-c1ccc(OC(F)(F)F)cc1 [Compound 400] | < 50 µM | < 50 µM
CCOc1ccc(-n2cc(Br)c3nccnc3c2=O)c(C)c1 [Compound 61] | < 50 µM | < 50 µM
CCOc1ccc(-n2cc(-c3cn[nH]c3)c(C)cc2=O)c(C)c1 [Compound 219] | > 200 µM | 50 to 200 µM
Cn1cc(-c2cn(-c3ccc(OC(F)(F)F)cc3)c(=O)c3c2OCC(=O)N3Cc2ccccc2)cn1 [Compound 50] | < 50 µM | > 200 µM
CCOc1ccc(-n2cc(-c3cnn(C)c3)c(Oc3ccccc3)cc2=O)c(C)c1 [Compound 403] | < 50 µM | < 50 µM
COc1cc(=O)n(-c2ccc(OC(F)(F)F)cc2)cc1-c1cnn(C)c1 [Compound 120] | < 50 µM | < 50 µM
Cn1cc(-c2cn(-c3ccc(OC(F)(F)F)cc3)c(=O)cc2NCc2ccccc2)cn1 [Compound 123] | < 50 µM | < 50 µM
Cc1cc(=O)n(-c2ccc(OC(F)(F)F)cc2)cc1-c1cn[nH]c1 [Compound 218] | < 50 µM | < 50 µM
Cc1cc(=O)[nH]cc1-c1cccc2c1OC(F)(F)O2 [Compound 565] | < 50 µM | < 50 µM
Cn1cc(-c2c[nH]c(=O)cc2NCc2ncccn2)cn1 [Compound 542] | < 50 µM | < 50 µM
O=c1c2[nH]ccc2c(-c2cn[nH]c2)cn1-c1ccc(Cl)cc1 [Compound 606] | < 50 µM | < 50 µM
CCn1cnc2c(-c3cnn(C)c3)cn(-c3ccc(OC(F)(F)F)cc3)c(=O)c21 [Compound 617] | 50 to 200 µM | < 50 µM
Cc1cc(=O)n(-c2cccc(NC(=O)N(C)C)c2)cc1-c1ccc(F)cc1 [Compound 417] | < 50 µM | < 50 µM
CCOc1ccc(-n2cc(-c3cnn(C)c3)c(OC)cc2=O)c(C)c1 [Compound 162] | < 50 µM | < 50 µM
CCn1nnc2c(=O)n(-c3ccc(OC(F)(F)F)cc3)cc(-c3ccc(F)cc3)c21 [Compound 682] | < 50 µM | < 50 µM
CCn1ccc2c(-c3ccc(F)cc3)c[nH]c(=O)c21 [Compound 595] | 50 to 200 µM | < 50 µM
Cn1cc(-c2cn(-c3ccc(OC(F)(F)F)cc3)c(=O)c3nnn(CCF)c23)cn1 [Compound 687] | < 50 µM | < 50 µM
O=c1c2nccnc2c(-c2ccc(F)cc2)cn1-c1ccc(OC(F)(F)F)cc1 [Compound 46] | < 50 µM | < 50 µM
O=c1cc(Cl)c(-c2ccc(F)cc2)cn1-c1ccc(OC(F)(F)F)cc1 [Compound 87] | < 50 µM | < 50 µM
CCOc1ccc(Oc2cc(=O)n(-c3ccc(OC(F)(F)F)cc3)cc2-c2cnn(C)c2)cc1C#N [Compound 157] | > 200 µM | < 50 µM
O=c1c2[nH]ccc2c(-c2ccc(F)cc2)cn1-c1ccc(OC(F)(F)F)cc1 [Compound 591] | > 200 µM | < 50 µM

Compound | IC50 [1] | EC50 [2]
Cn1cnc2c(-c3ccc(F)cc3)cn(-c3ccc(OC(F)(F)F)cc3)c(=O)c21 [Compound 58] | < 50 µM | < 50 µM
Cn1cc(-c2cn(-c3ccc(OC(F)(F)F)cc3)c(=O)cc2Oc2cccc(Cl)c2)cn1 [Compound 413] | < 50 µM | < 50 µM
CC(C)n1ccc2c(-c3cn[nH]c3)cn(-c3ccc(OC(F)(F)F)cc3)c(=O)c21 [Compound 648] | < 50 µM | < 50 µM
CCn1cnc2c(-c3cnn(C)c3)c[nH]c(=O)c21 [Compound 618] | 50 to 200 µM | 50 to 200 µM
Cc1cc(=O)n(-c2ccc(OC(F)(F)F)cc2)cc1-c1cccc(F)c1 [Compound 192] | < 50 µM | < 50 µM
Cc1ccc(=S)n(-c2ccc(OC(F)(F)F)cc2)c1 [Compound 333] | > 200 µM | 50 to 200 µM
Cc1ccc(=O)n(CCc2ccccc2)c1 [Compound 80] | > 200 µM | 50 to 200 µM
CCn1cnc2c(=O)n(-c3ccc(OC(F)(F)F)cc3)cc(-c3cnn(C)c3)c21 [Compound 636] | > 200 µM | > 200 µM
Cc1cc(=O)n(-c2ccc(OC(F)(F)F)cc2)cc1-c1ccc2c(c1)OC(F)(F)O2 [Compound 208] | 50 to 200 µM | 50 to 200 µM
CC(C)NC(=O)n1cc(-c2ccc(=O)n(-c3ccccc3)c2)cn1 [Compound 75] | 50 to 200 µM | 50 to 200 µM
CN(Cc1ccccc1)c1cc(=O)n(-c2ccc(OC(F)(F)F)cc2)cc1-c1cnn(C)c1 [Compound 126] | < 50 µM | < 50 µM
CCOC(=O)Nc1cccc(-n2cc(-c3ccc(F)cc3)c(C)cc2=O)c1 [Compound 416] | < 50 µM | < 50 µM
Cn1cc(-c2cn(-c3ccc(OC(F)(F)F)cc3)c(=O)cc2Oc2ccccc2)cn1 [Compound 153] | < 50 µM | < 50 µM
Cc1cc(=O)n(-c2ccc(OC(F)(F)F)cc2)cc1-c1ccc2c(c1)OCO2 [Compound 202] | < 50 µM | 50 to 200 µM
O=C(c1ccccc1)n1cc(-c2ccc(=O)n(-c3ccccc3)c2)cn1 [Compound 68] | > 200 µM | > 200 µM
CCOc1ccc(-n2cc(-c3cnn(C)c3)c3nn(CC)nc3c2=O)c(C)c1 [Compound 686] | < 50 µM | 50 to 200 µM
O=C1CNCCN1CCOc1cc(=O)n(-c2ccc(OC(F)(F)F)cc2)cc1-c1ccc(F)cc1 [Compound 101] | 50 to 200 µM | > 200 µM
CC(C)n1ccc2c(-c3cnn(C)c3)cn(-c3ccc(OC(F)(F)F)cc3)c(=O)c21 [Compound 647] | < 50 µM | < 50 µM
Cn1cc(-c2c[nH]c(=O)cc2NCc2ccccn2)cn1 [Compound 544] | < 50 µM | 50 to 200 µM
Cc1cc(-c2ccc(F)cc2)cn(-c2ccc(OC(F)(F)F)cc2)c1=O [Compound 350] | 50 to 200 µM | 50 to 200 µM
Cc1cc(=O)n(-c2cccc(NC(N)=O)c2)cc1-c1ccc(F)cc1 [Compound 188] | < 50 µM | < 50 µM
Cc1cc(=O)n(-c2ccc(OC(F)(F)F)cc2)cc1-c1ccc(F)c(F)c1 [Compound 196] | < 50 µM | 50 to 200 µM
CCOc1ccc(-n2cc(-c3c(C)n[nH]c3C)ccc2=O)c(C)c1 [Compound 387] | 50 to 200 µM | 50 to 200 µM
Cn1ccc2c(-c3cn[nH]c3)cn(-c3ccc(OC(F)(F)F)cc3)c(=O)c21 [Compound 602] | < 50 µM | < 50 µM
COc1ccc(CNc2cc(=O)n(-c3ccc(OC(F)(F)F)cc3)cc2-c2cnn(C)c2)cc1 [Compound 134] | < 50 µM | < 50 µM
Cn1cc(-c2cn(-c3ccc(OC(F)(F)F)cc3)c(=O)c3[nH]ccc23)cn1 [Compound 603] | < 50 µM | < 50 µM
